Test results taken from the NIST ThermoML archive (doi:10.1021/je8007759).

Test: xn = mol fraction of the nth substance listed

CC1CCC(=O)O1 (stereo not given) [γ-valerolactone] + O=C=O
mass density [kg/m3], Fluid (supercritical or subcritical phases), Pycnometric method
Settings | 308.2 K | 313.2 K
7520 kPa, x1 = 0.1 | 928 | –
7560 kPa, x1 = 0.05 | 838 | –
7630 kPa, x1 = 0.01 | 665 | –
7630 kPa, x1 = 0.05 | 842 | –
7640 kPa, x1 = 0.025 | 781 | –
7650 kPa, x1 = 0.01 | 669 | –
7670 kPa, x1 = 0.01 | 673 | –
7670 kPa, x1 = 0.1 | 932 | –
7690 kPa, x1 = 0.01 | 677 | –
7710 kPa, x1 = 0.05 | 845 | –
7710 kPa, x1 = 0.15 | 979 | –
7720 kPa, x1 = 0.01 | 681 | –
7720 kPa, x1 = 0.025 | 786 | –
7750 kPa, x1 = 0.01 | 685 | –
7790 kPa, x1 = 0.01 | 690 | –
7810 kPa, x1 = 0.1 | 935 | –
7820 kPa, x1 = 0.025 | 792 | –
7830 kPa, x1 = 0.01 | 694 | –
7850 kPa, x1 = 0.05 | 850 | –
7870 kPa, x1 = 0.01 | 698 | –
7910 kPa, x1 = 0.01 | 703 | –
7930 kPa, x1 = 0.025 | 798 | –
7970 kPa, x1 = 0.01 | 710 | –
8050 kPa, x1 = 0.01 | 717 | –
8060 kPa, x1 = 0.025 | 804 | –
8110 kPa, x1 = 0.05 | 855 | –
8150 kPa, x1 = 0.01 | 724 | –
8170 kPa, x1 = 0.025 | 809 | –
8200 kPa, x1 = 0.15 | – | 962
8230 kPa, x1 = 0.15 | 982 | –
8300 kPa, x1 = 0.01 | 734 | 547
8310 kPa, x1 = 0.01 | – | 557
8320 kPa, x1 = 0.01 | – | 561
8330 kPa, x1 = 0.01 | – | 565
8340 kPa, x1 = 0.01 | – | 568
8340 kPa, x1 = 0.05 | – | 809
8340 kPa, x1 = 0.1 | 942 | –
8350 kPa, x1 = 0.01 | – | 572
8350 kPa, x1 = 0.025 | 815 | –
8370 kPa, x1 = 0.01 | – | 576
8370 kPa, x1 = 0.025 | – | 726
8380 kPa, x1 = 0.01 | – | 581
8380 kPa, x1 = 0.1 | – | 913
8390 kPa, x1 = 0.01 | – | 589
8400 kPa, x1 = 0.05 | 862 | –
8410 kPa, x1 = 0.01 | – | 592
8410 kPa, x1 = 0.025 | – | 730
8420 kPa, x1 = 0.01 | – | 596
8430 kPa, x1 = 0.01 | – | 602
8440 kPa, x1 = 0.01 | – | 606
8450 kPa, x1 = 0.025 | – | 736
8460 kPa, x1 = 0.01 | 744 | 609
8460 kPa, x1 = 0.05 | – | 814
8470 kPa, x1 = 0.01 | – | 612
8480 kPa, x1 = 0.01 | – | 616
8500 kPa, x1 = 0.01 | – | 619
8510 kPa, x1 = 0.025 | – | 740
8520 kPa, x1 = 0.01 | – | 623
8520 kPa, x1 = 0.1 | – | 916
8530 kPa, x1 = 0.01 | – | 627
8530 kPa, x1 = 0.025 | 822 | –
8550 kPa, x1 = 0.025 | – | 745
8560 kPa, x1 = 0.01 | – | 630
8580 kPa, x1 = 0.01 | – | 634
8580 kPa, x1 = 0.15 | – | 965
8600 kPa, x1 = 0.01 | – | 638
8620 kPa, x1 = 0.025 | – | 750
8630 kPa, x1 = 0.01 | – | 641
8650 kPa, x1 = 0.01 | – | 645
8670 kPa, x1 = 0.01 | 754 | –
8670 kPa, x1 = 0.05 | – | 820
8680 kPa, x1 = 0.01 | – | 649
8680 kPa, x1 = 0.1 | 946 | –
8700 kPa, x1 = 0.025 | 827 | 755
8720 kPa, x1 = 0.01 | – | 653
8750 kPa, x1 = 0.01 | – | 657
8750 kPa, x1 = 0.05 | 869 | –
8760 kPa, x1 = 0.1 | – | 920
8780 kPa, x1 = 0.01 | – | 661
8780 kPa, x1 = 0.025 | – | 760
8810 kPa, x1 = 0.01 | – | 665
8830 kPa, x1 = 0.15 | 985 | –
8850 kPa, x1 = 0.01 | – | 669
8880 kPa, x1 = 0.025 | – | 765
8880 kPa, x1 = 0.05 | – | 826
8890 kPa, x1 = 0.01 | – | 673
8910 kPa, x1 = 0.01 | 765 | –
8940 kPa, x1 = 0.01 | – | 677
8940 kPa, x1 = 0.025 | 833 | –
8960 kPa, x1 = 0.025 | – | 771
8990 kPa, x1 = 0.01 | – | 681
9000 kPa, x1 = 0.1 | – | 923
9040 kPa, x1 = 0.01 | – | 686
9060 kPa, x1 = 0.025 | – | 775
9070 kPa, x1 = 0.15 | – | 969
9100 kPa, x1 = 0.01 | – | 690
9140 kPa, x1 = 0.05 | 875 | –
9150 kPa, x1 = 0.01 | – | 694
9180 kPa, x1 = 0.01 | 775 | –
9180 kPa, x1 = 0.025 | 840 | 781
9180 kPa, x1 = 0.05 | – | 835
9200 kPa, x1 = 0.01 | – | 698
9280 kPa, x1 = 0.01 | – | 703
9280 kPa, x1 = 0.1 | – | 926
9310 kPa, x1 = 0.025 | – | 786
9340 kPa, x1 = 0.01 | – | 708
9380 kPa, x1 = 0.1 | 953 | –
9400 kPa, x1 = 0.15 | 988 | –
9410 kPa, x1 = 0.025 | 845 | –
9430 kPa, x1 = 0.01 | – | 712
9440 kPa, x1 = 0.05 | – | 841
9450 kPa, x1 = 0.025 | – | 792
9500 kPa, x1 = 0.01 | 787 | 717
9510 kPa, x1 = 0.05 | 881 | –
9550 kPa, x1 = 0.1 | – | 929
9590 kPa, x1 = 0.01 | – | 721
9590 kPa, x1 = 0.025 | – | 798
9670 kPa, x1 = 0.15 | – | 972
9680 kPa, x1 = 0.01 | – | 727
9700 kPa, x1 = 0.025 | 852 | –
9710 kPa, x1 = 0.05 | – | 847
9780 kPa, x1 = 0.025 | – | 803
9880 kPa, x1 = 0.01 | – | 736
9880 kPa, x1 = 0.1 | – | 932
9890 kPa, x1 = 0.01 | 798 | –
9970 kPa, x1 = 0.025 | – | 810
9980 kPa, x1 = 0.15 | 991 | –
10000 kPa, x1 = 0.1 | 958 | –
10030 kPa, x1 = 0.05 | – | 852
10120 kPa, x1 = 0.01 | – | 746
10180 kPa, x1 = 0.025 | – | 815
10180 kPa, x1 = 0.1 | – | 936
10310 kPa, x1 = 0.15 | – | 976
10350 kPa, x1 = 0.01 | 810 | –
10370 kPa, x1 = 0.1 | – | 938
10390 kPa, x1 = 0.01 | – | 755
10390 kPa, x1 = 0.05 | – | 859
10400 kPa, x1 = 0.025 | – | 821
10540 kPa, x1 = 0.1 | – | 939
10620 kPa, x1 = 0.15 | – | 978
10630 kPa, x1 = 0.025 | – | 827
10680 kPa, x1 = 0.01 | – | 767
10720 kPa, x1 = 0.15 | 995 | –
10750 kPa, x1 = 0.05 | – | 865
11040 kPa, x1 = 0.1 | 967 | –
11360 kPa, x1 = 0.15 | 999 | –
11550 kPa, x1 = 0.1 | 970 | –
11980 kPa, x1 = 0.15 | 1002 | –
12070 kPa, x1 = 0.1 | 974 | –
12550 kPa, x1 = 0.1 | 978 | –
12950 kPa, x1 = 0.15 | 1006 | –
13110 kPa, x1 = 0.1 | 981 | –
13620 kPa, x1 = 0.15 | 1009 | –
13640 kPa, x1 = 0.1 | 984 | –
14250 kPa, x1 = 0.1 | 989 | –
14410 kPa, x1 = 0.15 | 1013 | –
14770 kPa, x1 = 0.1 | 992 | –
15180 kPa, x1 = 0.15 | 1016 | –
16060 kPa, x1 = 0.15 | 1020 | –
16850 kPa, x1 = 0.15 | 1023 | –

308.2 K, Liquid, high pressure variable cell
Settings | mass density [kg/m3]
x1 = 0.01 | 663
x1 = 0.025 | 777
x1 = 0.05 | 834
x1 = 0.1 | 920
x1 = 0.15 | 972
